Source: PMC9367672, “In vitro differences in toddalolactone metabolism in various species and its effect on cytochrome P450 expression” (Pharmaceutical Biology, 2022)

Experiments:
[1] = Metabolic stability assessment in mini pig liver microsomes; assay type: in vitro ADME; settings: pH 7.4, PLMs, toddalolactone 20 μM, 0-90 min
Method: (§1) The CYP reaction system (200 μL) consisted of 0.1 M potassium phosphate buffer (pH 7.4), an NADPH-generating system (1 mM NADPH, 10 mM G-6-P, 1 unit/mL G-6-PD, 4 mM MgCl2), and liver microsomes or recombinant human microsomes (supersomes). Each of the in vitro enzymatic assays using liver microsomes was linear with respect to incubation time and amount of protein. After a pre-incubation at 37 °C for 3 min, the reactions were initiated by adding NADP^+. After incubating for 60 min, the reactions were quenched by adding 200 μL of ice-cold acetonitrile. Samples were centrifuged at 18,000 g for 15 min at 4 °C and 10 μL of supernatant was analyzed using an HPLC system. […]
(§2) In the UGT reaction system, liver microsomes were incubated in 200 μL of the reaction system containing 4 mM UDPGA, 5 mM MgCl2, 20 µg/mL alamethicin, and 50 mM Tris-HCl buffer (pH 7.4). […] After centrifugation at 18,000 g for 15 min, 10 μL of the supernatant was analyzed by HPLC.
(§3) Toddalolactone (20 μM) was incubated with different liver microsomes, including HLMs, DLMs, PLMs, MLMs, RAMs, RLMs or MIMs in oxidative metabolism and glucuronidation reaction systems. […] The mixtures were centrifuged at 18,000 g for 15 min at 4 °C and then 10 μL of the supernatant was analyzed by HPLC. […]
(§4) The peak areas of toddalolactone and its metabolites were detected using a HPLC system (Shimadzu, Kyoto, Japan). […]

[2] = Metabolic stability assessment in human liver microsomes (CYP and UGT incubation systems); assay type: in vitro ADME; settings: pH 7.4, HLMs, toddalolactone 20 μM, 0-90 min
Method: as §1, §2, §3, §4

[3] = target: T1, CYP1A1 (Homo sapiens, UniProt P04798); test: Enzyme kinetics of toddalolactone metabolism by recombinant CYP1A1; settings: recombinant CYP1A1 (15 nM); P4 formation
T1 sequence (P04798 1-512): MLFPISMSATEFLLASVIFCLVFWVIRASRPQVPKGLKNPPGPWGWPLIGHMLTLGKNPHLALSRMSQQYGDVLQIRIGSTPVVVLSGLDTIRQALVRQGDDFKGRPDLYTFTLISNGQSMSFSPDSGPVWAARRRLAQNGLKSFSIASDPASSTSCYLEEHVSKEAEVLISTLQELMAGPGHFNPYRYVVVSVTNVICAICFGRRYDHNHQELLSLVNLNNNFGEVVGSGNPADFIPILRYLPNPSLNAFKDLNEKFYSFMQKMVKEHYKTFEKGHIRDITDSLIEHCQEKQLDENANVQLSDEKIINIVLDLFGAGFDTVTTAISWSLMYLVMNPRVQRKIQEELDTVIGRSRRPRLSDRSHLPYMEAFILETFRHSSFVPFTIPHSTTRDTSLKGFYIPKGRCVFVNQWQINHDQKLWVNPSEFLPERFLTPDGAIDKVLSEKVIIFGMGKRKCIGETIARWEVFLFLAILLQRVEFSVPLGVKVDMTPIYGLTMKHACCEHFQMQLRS
Method: The enzyme kinetics of toddalolactone in oxidative metabolism and glucuronidation were determined by incubating liver microsomes (0.2 mg/mL) or CYPs (15 nM) with different concentrations of toddalolactone (1–200 μM). […] The in vitro intrinsic clearance (CLint) was calculated based on the Vmax/Km ratio. Metabolites were quantified using the standard curve for toddalolactone because of the absence of metabolite standards. […]

[4] = Metabolic stability assessment in mouse liver microsomes; assay type: in vitro ADME; settings: pH 7.4, MIMs, CYP incubation system, toddalolactone 20 μM, 0-90 min, read-out: half-life value (T1/2)
Method: as §1, §2, §3, §4

[5] = target: T1, CYP1A1; test: Reaction phenotyping with recombinant human CYP1A1; assay type: in vitro ADME; design: purchased Corning Life Sciences (Corning, MA); settings: CYP1A1 15 nM, 37 °C, 60 min; P4 main metabolite
Method: The CYP reaction system (200 μL) consisted of 0.1 M potassium phosphate buffer (pH 7.4), an NADPH-generating system (1 mM NADPH, 10 mM G-6-P, 1 unit/mL G-6-PD, 4 mM MgCl2), and liver microsomes or recombinant human microsomes (supersomes). Each of the in vitro enzymatic assays using liver microsomes was linear with respect to incubation time and amount of protein. After a pre-incubation at 37 °C for 3 min, the reactions were initiated by adding NADP^+. After incubating for 60 min, the reactions were quenched by adding 200 μL of ice-cold acetonitrile. Samples were centrifuged at 18,000 g for 15 min at 4 °C and 10 μL of supernatant was analyzed using an HPLC system. NADPH or CYP enzyme sources were not used in the control group to ensure that the metabolic reactions were CYP- and NADPH-dependent. All incubation assays were completed in triplicate. The data are presented as mean ± standard deviation (SD).
Thirteen cDNA-expressed human CYP isoforms (CYP1A1, CYP1A2, CYP2A6, CYP2B6, CYP2C8, CYP3A4, CYP2C19, CYP3A5, CYP1B1, CYP2C9, CYP2D6, CYP2E1 and CYP4F2) were used to identify the isoform(s) involved in the biotransformation of toddalolactone. Toddalolactone (10 μM) was incubated with each recombinant CYP (15 nM) for 60 min at 37 °C and metabolites were identified by HPLC.

[6] = design: method as in Zhou et al. ([2021]); settings: mouse blood; intravenous administration; ref Zhou et al. ([2021]); cited from earlier work
[7] = target: CYP3A5 (Homo sapiens, UniProt P20815); test: Enzyme kinetics of toddalolactone metabolism by recombinant CYP3A5; settings: P4 formation
Method: The enzyme kinetics of toddalolactone in oxidative metabolism and glucuronidation were determined by incubating liver microsomes (0.2 mg/mL) or CYPs (15 nM) with different concentrations of toddalolactone (1–200 μM). The kinetic parameters including Km and Vmax were obtained by fitting the experimental data to the Michaelis–Menten equation (Equation (1)), biphasic kinetics equation (Equation (2)), or substrate inhibition equation (Equation (3)) (He et al. [2018]), and the results were graphically represented on Eadie–Hofstee plots. The in vitro intrinsic clearance (CLint) was calculated based on the Vmax/Km ratio. Metabolites were quantified using the standard curve for toddalolactone because of the absence of metabolite standards. All incubations were repeated in three independent experiments. Kinetic constants were expressed with mean ± SD: (1) V=Vmax×[S]/Km+[S] (2) V=Vmax1×[S]/Ks1+[S]+Vmax2×[S]/Ks2+[S] […]

[8] = Metabolic stability assessment in monkey liver microsomes; assay type: in vitro ADME; settings: pH 7.4, MLMs, toddalolactone 20 μM, 0-90 min
Method: as §1, §2, §3, §4

[9] = CYP incubation system, read-out: half-life value (T1/2)
[10] = UGT incubation system, read-out: T1/2 value

CYP3A5, sequence (P20815 whole entry): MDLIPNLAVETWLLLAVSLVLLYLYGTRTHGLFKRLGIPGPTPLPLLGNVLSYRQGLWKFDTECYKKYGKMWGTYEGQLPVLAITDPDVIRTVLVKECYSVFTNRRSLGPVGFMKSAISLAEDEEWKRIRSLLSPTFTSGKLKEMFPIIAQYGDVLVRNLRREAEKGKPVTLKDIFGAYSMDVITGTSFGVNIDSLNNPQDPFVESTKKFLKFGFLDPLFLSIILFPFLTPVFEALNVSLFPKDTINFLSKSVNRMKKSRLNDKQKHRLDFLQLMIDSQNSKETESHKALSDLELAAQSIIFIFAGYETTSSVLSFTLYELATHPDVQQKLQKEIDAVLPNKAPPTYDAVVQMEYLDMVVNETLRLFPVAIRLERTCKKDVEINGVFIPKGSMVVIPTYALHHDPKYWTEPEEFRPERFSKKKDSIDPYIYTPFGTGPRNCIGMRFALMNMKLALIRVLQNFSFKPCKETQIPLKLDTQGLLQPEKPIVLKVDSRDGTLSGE

## COc1cc2oc(=O)ccc2c(OC)c1C[C@@H](O)C(C)(C)O [toddalolactone]
[1]; [9]
  half-life at 20 μM: 5.12 ± 0.467 h
[1]; [10]
  half-life at 20 μM: 1.42 ± 0.0717 h
[2]; [9]
  half-life at 20 μM: 11.2 h
[2]; [10]
  half-life at 20 μM: 1.38 h
[3]
  K m: 60.12 ± 6.67 µM
[4]
  half-life at 20 μM: 3.92 ± 0.35 h
[5]
  catalysis of toddalolactone metabolism by rhCYP isoform: predominantly catalyzed
[6]
  t1/2: 0.8 h
[7]; recombinant CYP3A5 (15 nM)
  K m: 50.34 ± 8.62 µM
[7]; recombinant CYP3A5, Vmax/Km
  CLint: 0.013 µL/min/nmol CYP
[8]; [9]
  half-life at 20 μM: 4.08 h
[8]; [10]
  half-life at 20 μM: 1.1 h
